Columns and labels:
[1] = Free base crystalline form B standing at room temperature (XRPD); assay type: physicochemical; conditions: closed space, 5 days
Excerpt: The XRPD patterns of free base crystalline form B of compound A2 before and after standing at room temperature are shown in FIG. 9.

[2] = Free base crystalline form B nitrogen purging (XRPD); assay type: physicochemical; conditions: nitrogen purging at 30° C. for 20 minutes
[3] = Solid state stability of free base crystalline form A (HPLC); assay type: physicochemical; conditions: 60° C./1 day, closed space
Method: Solid State Stability of Free Base Crystalline Form A
The XRPD patterns of an initial sample of the free base crystalline form A described above and the free base crystalline form A after 1 day of standing in a closed space at 60° C. are shown in FIG. 5, and the HPLC results are shown in Table 5.

[4] = microsome metabolite identification / stability, beagle liver microsomes; assay type: in vitro ADME; conditions: 37° C.
Method: (§1) The operation steps for microsome metabolite identification were as follows:
(§2) For the sample with T=60 min, 4 μL of the test sample working solution (1.0 mM), 316 μL of the liver microsome working solution (1.27 mg/mL) and 80 μL of the reduced coenzyme working solution were added sequentially to start the reaction; for the sample with T=0 min, 316 μL of the liver microsome working solution (1.27 mg/mL) was added, and 80 μL of the reduced coenzyme working solution was added to start the reaction, with no test sample incubation; after incubation at 37° C. for 60 min, 1200 μL of stop buffer was added to stop the enzymatic reaction; and for the sample with T=0 min, 4 μL of the test sample working solution (1.0 mM) was added. The sample plate was placed on a vortexer and vortexed at 600 rpm for 5 min. The mixture was centrifuged at 4000 rpm for 10 min, and the supernatant was removed, mixed and purged with nitrogen to dryness at room temperature. The resulting solution was re-dissolved with 300 μL of 10% acetonitrile (0.1% FA), the […] centrifuged at 4000 rpm for 15 min, and the supernatant was transferred to a detection plate for mass spectrometry. Mass spectrometry was performed using an LC/Q-Exactive plus. 7-ethoxycoumarin (10 μM) was selected as a positive control compound, using the procedure same as that of the compounds.

[5] = microsome metabolite identification / stability, cynomolgus monkey liver microsomes; assay type: in vitro ADME; conditions: 37° C.
Method: as §1, §2

[6] = microsome metabolite identification / stability, rat liver microsomes; assay type: in vitro ADME; conditions: 37° C.
Method: as §1, §2

[7] = microsome metabolite identification / stability, mouse liver microsomes; assay type: in vitro ADME; conditions: 37° C.
Method: as §1, §2

[8] = microsome metabolite identification / stability, human liver microsomes; assay type: in vitro ADME; conditions: 37° C.
Method: as §1, §2

SMILES	crystalline form stability (XRPD) [2]	HPLC Area (%) of peak 4 (RRT 1.06) ([3]; initial sample 0.10)	HPLC Area (%) of peak 3 (RRT 1.05) ([3]; initial sample 0.22)	HPLC Area (%) of peak 1 (RRT 0.95) ([3]; initial sample 0.42)	HPLC Area (%) of peak 2 (RRT 1.00, main peak) ([3]; initial sample 99.26)	remaining percentage of the parent nucleus after 60 min [4]	remaining percentage of the parent nucleus after 60 min [5]	remaining percentage of the parent nucleus after 60 min [6]	remaining percentage of the parent nucleus after 60 min [7]	remaining percentage of the parent nucleus after 60 min [8]	crystalline form stability (XRPD) [1]
CN1CCC(c2ncc(-c3cnc(N)c(OCc4cccc(C#CC(C)(C)O)c4)c3)s2)CC1 [Compound B1, reference compound]	–	–	–	–	–	0.12%	9.11%	11.21%	1.24%	51.82%	–
[2H]C([2H])([2H])N1CCC(c2ncc(-c3cnc(N)c(OCc4cccc(C#CC(C)(C)O)c4)c3)s2)CC1 [Compound B2]	–	–	–	–	–	8.9%	23.4%	43.9%	42.8%	70.4%	–

More lines, main results first:

crystalline form stability (XRPD) [2]	HPLC Area (%) of peak 4 (RRT 1.06) ([3]; initial sample 0.10)	HPLC Area (%) of peak 3 (RRT 1.05) ([3]; initial sample 0.22)	HPLC Area (%) of peak 1 (RRT 0.95) ([3]; initial sample 0.42)	HPLC Area (%) of peak 2 (RRT 1.00, main peak) ([3]; initial sample 99.26)	remaining percentage of the parent nucleus after 60 min [4]	remaining percentage of the parent nucleus after 60 min [5]	remaining percentage of the parent nucleus after 60 min [6]	remaining percentage of the parent nucleus after 60 min [7]	remaining percentage of the parent nucleus after 60 min [8]	SMILES	crystalline form stability (XRPD) [1]
conversion in crystalline forms	0.09%	0.17%	0.41%	99.33%	–	–	–	–	–	[2H]C([2H])([2H])N1CCC(n2cc(-c3cnc(N)c(OCc4cccc(C#CC(C)(C)O)c4)c3)cn2)CC1 [4-(3-(((2-amino-S-(1-(1-trideuteromethylpiperidin-4-yl)-1H-pyrazol-4-yl)pyridin-3-yl)oxy)methyl)phenyl)-2-methylbut-3-yn-2-ol]	tendency of converting into the free base crystalline form A
–	–	–	–	–	0.17%	0.36%	2.44%	1.13%	43.84%	CN1CCC(n2cc(-c3cnc(N)c(OCc4cccc(C#CC(C)(C)O)c4)c3)cn2)CC1 [Compound A1, reference compound]	–
–	–	–	–	–	7.0%	29.6%	52.1%	55.0%	83.9%	[2H]C([2H])([2H])N1CCC(n2cc(-c3cnc(N)c(OCc4cccc(C#CC(C)(C)O)c4)c3)cn2)CC1 [Compound A2, 4-(3-(((2-amino-S-(1-(1-trideuteromethylpiperidin-4-yl)-1H-pyrazol-4-yl)pyridin-3-yl)oxy)methyl)phenyl)-2-methylbut-3-yn-2-ol]	–
